Read-outs that look alike come from different tables or passages of the source.
Experiments:
HeLa (cervical cancer) = assay: MTT in vitro cytotoxicity assay, HeLa; format: cell-based, human
Experimental: (§1) The synthesized compounds were evaluated for in-vitro cytotoxic activity against various cell lines such as HeLa (cervical cancer), MCF-7 (breast cancer), HL-60 (Human promyelocytic leukemia), HepG2 (Hepatocellular carcinoma) and MCF 12A (normal epithelial cell) by the MTT assay method. […] The relationship between surviving fraction and drug concentration was plotted to obtain the survival curve of all the cancer cell lines HeLa, MCF-7, HL-60 and HepG2. The response parameter calculated was the IC50 values, which responds to the concentration required for 50% inhibition of cell viability. The in-vitro cytotoxic activity of the synthesized compounds is summarized Table 3.
(§2) The target compounds were subjected to in vitro cytotoxicity bioassay. In vitro cytotoxicity was determined using a standard MTT assay with protocol appropriate for the individual test system[29]–[31]. The four human cancer cell lines HeLa, MCF-7, HL-60, HepG2 and MCF-12A were cultured in the MEM medium supplemented with 10% FBS, 1% glutamine and […] gentamicin sulfate in a CO2 incubator in a humidified atmosphere of 5% CO2 and 95% air. The test compounds were prepared prior to the experiment by dissolving in 0.1% DMSO and diluted with medium. The cells were then exposed to different concentrations of drugs ([…]) in the volume of […]. Cells in the control wells received the same volume of medium containing 0.1% DMSO. After 24 h, the medium was removed and cell cultures were incubated with […] MTT reagent (1 mg/ml) for 5 h at 37 °C. The known number of cells ([…]) was incubated in a 5% CO2 incubator at 37 °C in the presence of different concentrations of test compounds. After 48 h of drug incubation, the MTT solution was added in each well and absorbance was recorded at 540 nm by an ELISA reader. The experiment was performed in triplicate. Cell survival was calculated as the percentage of MTT inhibition as % growth inhibition = 100 − (mean OD of individual test Group/Mean OD of each Control Group) × 100.

MCF-7 (breast cancer) = assay: MTT in vitro cytotoxicity assay, MCF-7; format: cell-based, human
Experimental: as §1, §2

[1] = tested on: HL-60 (Human promyelocytic leukemia); assay: MTT in vitro cytotoxicity assay, HL-60; format: cell-based
Experimental: as §1, §2

[2] = tested on: HepG2 (Hepatocellular carcinoma); assay: MTT in vitro cytotoxicity assay, HepG2; format: cell-based, human; details: NA: Not active
Experimental: as §1, §2

[3] = tested on: MCF 12A (normal epithelial breast cell line); assay: MTT assay on normal cells, MCF 12A; format: cell-based, human; details: normal epithelial breast cell MCF 12A; for IC50: Homo sapiens
Experimental: as §1
The presence of non-halogen substituent along with electron donating substituent seriously jeopardise the anticancer potential. […] To determine the selectivity of these molecules between normal and cancerous cells, the designed compounds were also tested against MCF 12A, a normal epithelial breast cell.
as §2

EGFR-TK = molecular target: T1, EGFR-TK (Homo sapiens, UniProt P00533); assay: EGFR tyrosine kinase inhibitory activity (Kinase-Glo Plus luminescence); format: biochemical; details: for inhibition at 10 µM: read-out: Percent of Inhibition, EGFR tyrosine kinase; for %i: EGFR-TK percent inhibition as repeated in docking Table 5; for inhibition at 10 µM / Percent of Inhibition, EGFR tyrosine kinase: at 10 µM
T1 construct: 0.2 mg/mL Poly (Glu, Tyr) substrate, 10 mM ATP and EGFR
T1 sequence (P00533 25-1210): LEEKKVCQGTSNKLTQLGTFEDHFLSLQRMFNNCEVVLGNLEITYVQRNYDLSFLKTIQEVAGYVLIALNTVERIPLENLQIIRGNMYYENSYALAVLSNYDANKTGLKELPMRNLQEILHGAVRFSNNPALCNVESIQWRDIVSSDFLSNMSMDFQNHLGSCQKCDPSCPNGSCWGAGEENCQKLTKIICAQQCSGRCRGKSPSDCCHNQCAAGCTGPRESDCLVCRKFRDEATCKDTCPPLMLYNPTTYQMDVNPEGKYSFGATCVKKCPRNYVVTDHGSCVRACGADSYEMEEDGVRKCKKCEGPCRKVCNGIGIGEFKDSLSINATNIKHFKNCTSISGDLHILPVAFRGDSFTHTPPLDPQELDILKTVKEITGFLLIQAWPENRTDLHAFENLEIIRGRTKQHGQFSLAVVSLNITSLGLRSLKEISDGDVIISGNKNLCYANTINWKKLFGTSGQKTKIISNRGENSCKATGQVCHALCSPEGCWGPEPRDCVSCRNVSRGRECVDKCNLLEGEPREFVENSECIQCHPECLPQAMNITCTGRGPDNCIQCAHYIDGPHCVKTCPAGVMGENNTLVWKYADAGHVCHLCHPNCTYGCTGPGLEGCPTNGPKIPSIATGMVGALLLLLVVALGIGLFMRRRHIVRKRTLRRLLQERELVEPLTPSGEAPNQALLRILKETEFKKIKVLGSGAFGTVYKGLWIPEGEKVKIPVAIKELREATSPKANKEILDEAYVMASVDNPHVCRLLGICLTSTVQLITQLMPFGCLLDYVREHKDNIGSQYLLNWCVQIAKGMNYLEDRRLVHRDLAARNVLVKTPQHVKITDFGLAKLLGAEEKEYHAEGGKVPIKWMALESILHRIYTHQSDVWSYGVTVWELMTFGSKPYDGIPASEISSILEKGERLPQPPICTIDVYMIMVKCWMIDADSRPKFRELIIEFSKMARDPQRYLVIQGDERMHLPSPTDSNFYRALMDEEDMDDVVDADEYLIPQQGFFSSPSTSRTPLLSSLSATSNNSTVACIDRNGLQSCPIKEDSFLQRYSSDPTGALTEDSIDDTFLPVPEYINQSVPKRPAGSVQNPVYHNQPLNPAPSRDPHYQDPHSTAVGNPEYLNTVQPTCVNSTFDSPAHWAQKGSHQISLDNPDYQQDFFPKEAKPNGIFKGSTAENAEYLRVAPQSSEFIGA
Experimental: Kinase activity was determined using Kinase-Glo Plus luminescence kinase assay kit, by quantitating the amount of ATP remaining in the solution of kinase reaction. The luminescent signal is correlated with the residual amount present and it was inversely related with kinase activity. The tested compounds were diluted to 100 mM in 10% DMSO, then […] of the dilution was added to a 50 mL reaction. All of the enzymatic reactions were performed at 30 °C for 40 min, 50 mL of reaction mixture contains 10 mM MgCl2, 40 mM Tris, pH 7.4, 0.1 mg/mL BSA, 0.2 mg/mL Poly (Glu, Tyr) substrate, 10 mM ATP and EGFR. Incubate the plate for 5 min at r.t. then add 50 mL of Kinase-GloPlus Luminescence kinase assay to each reaction. ADP-Glo assay kit is the protein kinase assays used to determine IC50 values in which ADP generation was measured as it leads to an increase in luminescence signal. The reaction mixture was incubated in a 96-well plate at 30 °C for 30 min, after the incubation period add 25 mL of ADP-Glo reagent to terminate the assay. Shake the 96-well plate for 30 min at ambient temperature then incubate it, then add 50 mL of kinase detection reagent. Read the 96-well plate using the ADP-Glo Luminescence reader. All the assay components were added to the blank control except the substrate. By removing the blank control value you can obtain the corrected activity for each protein kinase target.

SMILES	IC50 (HeLa (cervical cancer); Homo sapiens)	IC50 (MCF-7 (breast cancer); Homo sapiens, MCF7)	IC50 ([1]; Homo sapiens)	IC50 ([2]; Homo sapiens)	IC50 [3]	inhibition at 10 µM (EGFR-TK)	melting point	IC50 MCF 12A [3]	IC50 (HeLa (cervical cancer))	IC50 (MCF-7 (breast cancer))	IC50 [1]	IC50 [2]	IC50 HepG2 [2]	%i (EGFR-TK)	Percent of Inhibition, EGFR tyrosine kinase (EGFR-TK)
CCOC(=O)C1=C(C)N(c2nc(Nc3ccccc3Cl)nc(Nc3ccccc3Cl)n2)C(=S)NC1c1ccc(OC)cc1 (stereo not shown) [7f, Ethyl 1-(4,6-bis((2-chlorophenyl)amino)-1,3,5-triazin-2-yl)-4-(4-methoxyphenyl)-6-methyl-2-thioxo-1,2,3,4-tetrahydropyrimidine-5-carboxylate]	55.4 ± 0.12 µM	64 ± 0.38 µM	47 ± 0.54 µM	46.5 ± 0.36 µM	82.14 ± 0.21 µM	81.4%	91 to 93 °C								
CCOC(=O)C1=C(C)N(c2nc(Nc3ccc([N+](=O)[O-])cc3)nc(Nc3ccc([N+](=O)[O-])cc3)n2)C(=S)NC1c1ccc(C)cc1 (stereo not shown) [7b, Ethyl 1-(4,6-bis((4-nitrophenyl)amino)-1,3,5-triazin-2-yl)-6-methyl-2-thioxo-4-(p-tolyl)-1,2,3,4-tetrahydropyrimidine-5-carboxylate]	81.8 ± 0.34 µM	76.5 ± 0.54 µM	77.3 ± 0.41 µM	79.3 ± 0.75 µM		56.7%	183 to 185 °C	non-toxic							
N.N.[Cl][Pt][Cl] [Cisplatin, reference compound]								non-toxic	32.5 ± 0.62 µM	24.4 ± 0.92 µM	12.3 ± 0.76 µM	25.9 ± 0.82 µM			
CCOC(=O)C1=C(C)N(c2nc(Nc3cccc(Br)c3)nc(Nc3cccc(Br)c3)n2)C(=S)NC1c1ccccc1O (stereo not shown) [7e, Ethyl 1-(4,6-bis((3-bromophenyl)amino)-1,3,5-triazin-2-yl)-4-(2-hydroxyphenyl)-6-methyl-2-thioxo-1,2,3,4-tetrahydropyrimidine-5-carboxylate]	63.9 ± 0.25 µM	67.8 ± 0.61 µM	57.4 ± 0.52 µM	65.6 ± 0.45 µM	89.45 ± 0.45 µM	78.5%	245 to 247 °C								
CCOC(=O)C1=C(C)N(c2nc(Nc3ccccc3)nc(Nc3ccccc3)n2)C(=S)NC1c1ccccc1 (stereo not shown) [7a, Ethyl 1-(4,6-bis(phenylamino)-1,3,5-triazin-2-yl)-6-methyl-4-phenyl-2-thioxo-1,2,3,4-tetrahydropyrimidine-5-carboxylate]	96.6 ± 0.45 µM	87.4 ± 0.76 µM	83.7 ± 0.27 µM			52.4%	225 to 227 °C	non-toxic					inactive		
CCOC(=O)C1=C(C)N(c2nc(Nc3cccc(F)c3)nc(Nc3cccc(F)c3)n2)C(=S)NC1c1ccccc1OC (stereo not shown) [7g, Ethyl 1-(4,6-bis((3-fluorophenyl)amino)-1,3,5-triazin-2-yl)-4-(2-methoxyphenyl)-6-methyl-2-thioxo-1,2,3,4-tetrahydropyrimidine-5-carboxylate]	42.1 ± 0.12 µM	47.4 ± 0.27 µM	31.5 ± 0.21 µM	36.3 ± 0.47 µM	77.22 ± 0.34 µM	94.3%	132 to 135 °C								
CCOC(=O)C1=C(C)N(c2nc(Nc3ccccc3[N+](=O)[O-])nc(Nc3ccccc3[N+](=O)[O-])n2)C(=S)NC1c1cccc(Br)c1 (stereo not shown) [7i, Ethyl 1-(4,6-bis((2-nitrophenyl)amino)-1,3,5-triazin-2-yl)-4-(3-bromophenyl)-6-methyl-2-thioxo-1,2,3,4-tetrahydropyrimidine-5-carboxylate]	76 ± 0.54 µM	76.4 ± 0.33 µM	66.7 ± 0.67 µM	71.6 ± 0.29 µM		~69%	185 to 186 °C	non-toxic						69.3%	69.3%
CCOC(=O)C1=C(C)N(c2nc(Nc3cccc(Cl)c3)nc(Nc3cccc(Cl)c3)n2)C(=S)NC1c1ccc(F)cc1 (stereo not shown) [7m, Ethyl 1-(4,6-bis((3-chlorophenyl)amino)-1,3,5-triazin-2-yl)-4-(4-fluorophenyl)-6-methyl-2-thioxo-1,2,3,4-tetrahydropyrimidine-5-carboxylate]	42.1 ± 0.34 µM	53.8 ± 0.28 µM	36.5 ± 0.48 µM	39.3 ± 0.12 µM	73.56 ± 0.4 µM	88.5%	153 to 155 °C								
CCOC(=O)C1=C(C)N(c2nc(Nc3cccc(Br)c3)nc(Nc3cccc(Br)c3)n2)C(=S)NC1c1ccc([N+](=O)[O-])cc1 (stereo not shown) [7k, Ethyl 1-(4,6-bis((3-bromophenyl)amino)-1,3,5-triazin-2-yl)-6-methyl-4-(4-nitrophenyl)-2-thioxo-1,2,3,4-tetrahydropyrimidine-5-carboxylate]	66.4 ± 0.67 µM	65.6 ± 0.43 µM	51.3 ± 0.82 µM	59.7 ± 0.69 µM		~69%		non-toxic						70.1%	70.1%
CCOC(=O)C1=C(C)N(c2nc(Nc3ccc(C)cc3)nc(Nc3ccc(C)cc3)n2)C(=S)NC1c1ccc(O)cc1 (stereo not shown) [7o, Ethyl 1-(4,6-bis(p-tolylamino)-1,3,5-triazin-2-yl)-4-(4-hydroxyphenyl)-6-methyl-2-thioxo-1,2,3,4-tetrahydropyrimidine-5-carboxylate]	94.3 ± 0.78 µM	89.4 ± 0.49 µM	98.3 ± 0.27 µM			45.6%	131 to 133 °C	non-toxic							
CCOC(=O)C1=C(C)N(c2nc(Nc3ccc(C)cc3)nc(Nc3ccc(C)cc3)n2)C(=S)NC1c1ccccc1C (stereo not shown) [7n, Ethyl 1-(4,6-bis(p-tolylamino)-1,3,5-triazin-2-yl)-6-methyl-2-thioxo-4-(o-tolyl)-1,2,3,4-tetrahydropyrimidine-5-carboxylate]	92.6 ± 0.23 µM	93.2 ± 0.58 µM	104.5 ± 0.39 µM			54.2%	205 to 207 °C	non-toxic							
